Key:
[1] = molecular target: T1, Aurora-A kinase (Homo sapiens, UniProt O14965); assay: In vitro Aurora-A kinase inhibition test; type: biochemical
T1 construct: 6 histidine tag with spacer region and rTEV protease cleavage site (pFastBac HTc) (N); made in house; host or cells: Spodoptera frugiperda Sf21 insect cells (baculovirus)
T1 sequence (O14965 1-403): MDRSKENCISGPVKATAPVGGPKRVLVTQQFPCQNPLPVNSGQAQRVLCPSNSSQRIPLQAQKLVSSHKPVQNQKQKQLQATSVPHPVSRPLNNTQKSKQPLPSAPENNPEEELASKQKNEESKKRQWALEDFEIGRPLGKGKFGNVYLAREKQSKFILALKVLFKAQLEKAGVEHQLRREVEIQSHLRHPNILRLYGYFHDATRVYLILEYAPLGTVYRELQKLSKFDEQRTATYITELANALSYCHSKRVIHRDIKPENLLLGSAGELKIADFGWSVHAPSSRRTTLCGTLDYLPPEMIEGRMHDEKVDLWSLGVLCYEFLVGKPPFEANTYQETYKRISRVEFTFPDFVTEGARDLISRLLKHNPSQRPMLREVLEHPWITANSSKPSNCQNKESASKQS

[2] = molecular target: T2, Aurora-B kinase (Homo sapiens, UniProt Q96GD4); assay: In vitro Aurora-B kinase inhibition test; type: biochemical; conditions: recombinant Aurora-B, [γ33P]ATP, peptide substrate, 60 minutes room temperature; read-out: concentration giving 50% inhibition of enzyme activity
T2 construct: 6-histidine tag; made in house; host or cells: Spodoptera frugiperda Sf21 insect cells (baculovirus)
Source text: (b) In Vitro Aurora-B Kinase Inhibition Test
This assay determines the ability of a test compound to inhibit serine-threonine kinase activity. DNA encoding Aurora-B may be obtained by total gene synthesis or by cloning. This DNA may then be expressed in a suitable expression system to obtain polypeptide with serine-threonine kinase activity. In the case of Aurora-B, the coding sequence was isolated from cDNA by polymerase chain reaction (PCR) and cloned into the pFastBac system in a manner similar to that described above for Aurora-A (i.e. to direct expression of a 6-histidine tagged Aurora-B protein).
For the large scale expression of Aurora-B kinase activity, Sf21 insect cells were grown at 28° C. in TC100 medium supplemented with 10% foetal calf serum (Viralex) and 0.2% F68 Pluronic (Sigma) on a Wheaton roller rig at 3 r.p.m. When the cell density reached 1.2×10^6 cells ml^−1 they were infected with plaque-pure Aurora-B recombinant virus at a multiplicity of infection of 1 and harvested 48 hours later. All subsequent purification steps were performed at 4° C. […]

T2 sequence (Q96GD4 whole entry): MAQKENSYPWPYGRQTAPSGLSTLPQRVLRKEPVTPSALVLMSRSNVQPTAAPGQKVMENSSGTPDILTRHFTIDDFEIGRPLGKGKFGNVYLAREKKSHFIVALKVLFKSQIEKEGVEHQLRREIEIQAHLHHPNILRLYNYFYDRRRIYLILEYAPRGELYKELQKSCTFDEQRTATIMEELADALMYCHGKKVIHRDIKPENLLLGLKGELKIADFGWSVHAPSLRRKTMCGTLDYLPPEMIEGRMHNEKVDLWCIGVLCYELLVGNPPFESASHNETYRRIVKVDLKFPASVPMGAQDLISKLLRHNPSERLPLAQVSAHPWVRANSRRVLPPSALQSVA

Question: Which results are given for `COc1cc2c(Nc3cn(CC(=O)Nc4cccc(F)c4)nn3)ncnc2cc1OCCCCl` [Compound 1, 2-(4-{[7-(3-chloropropoxy)-6-methoxyguinazolin-4-yl]amino}-1H-1,2,3-triazol-1-yl)-N-(3-fluorophenyl)acetamide]?
Answer: IC50 [1]: 900 nM; IC50 [2]: 100 nM

Question: `CCCN(CCO)CCCOc1cc2ncnc(Nc3cn(CC(=O)Nc4cccc(F)c4)nn3)c2cc1OC` [Compound 4, N-(3-fluorophenyl)-2-{4-[(7-{3-[(2-hydroxyethyl)(propyl)amino]propoxy}-6-methoxyquinazolin-4-yl)amino]-1H-1,2,3-triazol-1-yl}acetamide] was tested. Which IC50 [1] did it give?
Answer: Its IC50 is 500 nM.

Question: What about the IC50 [2] of the same compound?
Answer: The IC50 was 100 nM.

From US20060178382A1, “Chinazoline derivatives as aurora kinase inhibitors” (AstraZeneca AB, priority 2003, published 2006)
